Assay results: ChEMBL document CHEMBL4699433, “Rational design, synthesis and testing of novel tricyclic topoisomerase inhibitors for the treatment of bacterial infections part 2” (RSC Med Chem, 2020)
Converted amounts (≈) assume the structure as drawn.

Columns and labels:
Streptococcus pneumoniae = test: Antibacterial activity against Streptococcus pneumoniae ATCC 49619 assessed as reduction in bacterial growth by CLSI based broth microdilution method; format: functional
Escherichia coli = test: Antibacterial activity against Escherichia coli ATCC 25922 assessed as reduction in bacterial growth by CLSI based broth microdilution method; format: functional
Staphylococcus aureus = test: Antibacterial activity against wild type methicillin-sensitive Staphylococcus aureus ATCC 29213 assessed as reduction in bacterial growth by CLSI based broth microdilution method; format: functional
[1] = Thermodynamic solubility of the compound; format: physicochemical; settings: read-out: Therm_solubility
Haemophilus influenzae = test: Antibacterial activity against Haemophilus influenzae ATCC 49247 assessed as reduction in bacterial growth by CLSI based broth microdilution method; format: functional

## Cc1nc2c(=O)n(C3CC3)c3c(Cl)c(N4CC[C@H](CN)C4)c(F)cc3c2o1
Streptococcus pneumoniae
  MIC: 0.12 µg/mL (≈ 0.307 µM)
Escherichia coli
  MIC: 0.5 µg/mL (≈ 1.28 µM)
Staphylococcus aureus
  MIC: 0.12 µg/mL (≈ 0.307 µM)
[1]
  solubility thermodynamic: 601 µg/mL (≈ 1540 µM)
Haemophilus influenzae
  MIC: 1 µg/mL (≈ 2.56 µM)

## Cc1nc2c(=O)n(C3CC3)c3c(Cl)c(N4CCC(N(C)C)C4)c(F)cc3c2o1 (stereo unspecified)
Streptococcus pneumoniae
  MIC: 4 µg/mL (≈ 9.88 µM)
Escherichia coli
  MIC: 4 µg/mL (≈ 9.88 µM)
Staphylococcus aureus
  MIC: 4 µg/mL (≈ 9.88 µM)
Haemophilus influenzae
  MIC: 8 µg/mL (≈ 19.8 µM)

## Cc1nc2c(=O)n(C3CC3)c3c(Cl)c(N4CC[C@@H](CN)C4)c(F)cc3c2o1
Streptococcus pneumoniae
  MIC: 0.12 µg/mL (≈ 0.307 µM)
Escherichia coli
  MIC: 1 µg/mL (≈ 2.56 µM)
Staphylococcus aureus
  MIC: 0.12 µg/mL (≈ 0.307 µM)
[1]
  solubility thermodynamic: 950 µg/mL (≈ 2430 µM)

## Cc1nc2c(=O)n(C3CC3)c3cc(N4CCC(N)CC4)c(F)cc3c2o1
Streptococcus pneumoniae
  MIC: 1 µg/mL (≈ 2.81 µM)
Escherichia coli
  MIC: 2 µg/mL (≈ 5.61 µM)
Staphylococcus aureus
  MIC: 1 µg/mL (≈ 2.81 µM)
[1]
  solubility thermodynamic: 1400 µg/mL (≈ 3940 µM)
Haemophilus influenzae
  MIC: 1 µg/mL (≈ 2.81 µM)

## Cc1nc2c(=O)n(C3CC3)c3cc(N4CC[C@H](CN)C4)c(F)cc3c2o1
Streptococcus pneumoniae
  MIC: 0.5 µg/mL (≈ 1.4 µM)
Escherichia coli
  MIC: 2 µg/mL (≈ 5.61 µM)
Staphylococcus aureus
  MIC: 1 µg/mL (≈ 2.81 µM)
[1]
  solubility thermodynamic: 1400 µg/mL (≈ 3940 µM)
Haemophilus influenzae
  MIC: 8 µg/mL (≈ 22.4 µM)

## Cc1nc2c(=O)n(C3CC3)c3c(Cl)c(N4C[C@@H](C)N[C@@H](C)C4)c(F)cc3c2o1
Streptococcus pneumoniae
  MIC: 16 µg/mL (≈ 39.5 µM)
Escherichia coli
  MIC: 4 µg/mL (≈ 9.88 µM)
Staphylococcus aureus
  MIC: 8 µg/mL (≈ 19.8 µM)
[1]
  solubility thermodynamic: 543 µg/mL (≈ 1340 µM)
Haemophilus influenzae
  MIC: 8 µg/mL (≈ 19.8 µM)

## Cc1nc2c(=O)n(C3CC3)c3cc(N4CCC(CN)C4)c(F)cc3c2o1 (stereo unspecified)
Streptococcus pneumoniae
  MIC: 0.5 µg/mL (≈ 1.4 µM)
Escherichia coli
  MIC: 2 µg/mL (≈ 5.61 µM)
Staphylococcus aureus
  MIC: 0.5 µg/mL (≈ 1.4 µM)
Haemophilus influenzae
  MIC: 8 µg/mL (≈ 22.4 µM)

## Cc1nc2c(=O)n(C3CC3)c3cc(N4CCC(C(C)N)C4)c(F)cc3c2o1 (stereo unspecified)
Streptococcus pneumoniae
  MIC: 1 µg/mL (≈ 2.7 µM)
Escherichia coli
  MIC: 4 µg/mL (≈ 10.8 µM)
Staphylococcus aureus
  MIC: 1 µg/mL (≈ 2.7 µM)
[1]
  solubility thermodynamic: 1350 µg/mL (≈ 3640 µM)
Haemophilus influenzae
  MIC: 4 µg/mL (≈ 10.8 µM)

## CNC[C@H]1CCN(c2c(F)cc3c4oc(C)nc4c(=O)n(C4CC4)c3c2Cl)C1
Streptococcus pneumoniae
  MIC: 0.25 µg/mL (≈ 0.617 µM)
Escherichia coli
  MIC: 2 µg/mL (≈ 4.94 µM)
Staphylococcus aureus
  MIC: 0.25 µg/mL (≈ 0.617 µM)
Haemophilus influenzae
  MIC: 1 µg/mL (≈ 2.47 µM)

## Cc1nc2c(=O)n(C3CC3)c3cc(N4CC[C@@H](C(C)(C)N)C4)c(F)cc3c2o1
Streptococcus pneumoniae
  MIC: 2 µg/mL (≈ 5.2 µM)
Escherichia coli
  MIC: 8 µg/mL (≈ 20.8 µM)
Staphylococcus aureus
  MIC: 2 µg/mL (≈ 5.2 µM)
[1]
  solubility thermodynamic: 1350 µg/mL (≈ 3520 µM)
Haemophilus influenzae
  MIC: 16 µg/mL (≈ 41.6 µM)
